The text below walks through data of patent US11279733B2, “Peptide antibiotics” (priority 2017, dated 2022).

One data set deals with A. baumannii ATCC 19606. As to conditions: ATCC 19606. In outline: (§1)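 Mid-log cultures grown in Mueller Hinton broth at 37° C were tested by 2-fold broth microdilution at 5×10^5 CFU/mL final. Compounds were dissolved in water and tested over a final range of 32 to 0.015 μg/mL.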
The test system of another data set is A. baumannii GN_093 PmxR. Conditions: GN 093 PmxR. The gist of the method:
as §1

For the next data set, the system named is E. coli ATCC 25922. Conditions: ATCC 25922. The gist of the method:
as §1

In the next data set the test system is K. pneumoniae ATCC 13883. Conditions: ATCC 13883. In outline: as §1
Data set [1] relates to K. pneumoniae ATCC 700603, MDR. Conditions: ATCC 700603. The gist of the method: as §1
The subject of data set [2] is K. pneumoniae ATCC BAA-2146, NDM-1 pos. As to conditions: ATCC BAA-2146. The gist of the method: as §1
Data set [3] relates to K. pneumoniae GN_102 PmxR. Conditions: GN 102 PmxR. In outline:
as §1

Data set [4] deals with K. pneumoniae GN_106, PmxR. As to conditions: GN 106, PmxR. The gist of the method: as §1
Another data set has as its system P. aeruginosa ATCC 27853. Conditions: ATCC 27853. In outline:
as §1

For data set [5], the system named is P. aeruginosa GN_043, PmxR. As to conditions: polymyxin-resistant. The gist of the method:
as §1

Data set [6] has as its system P. aeruginosa GN_105, PmxR. As to conditions: GN 105, PmxR. In outline: as §1
Data set [7] concerns S. aureus ATCC 25923, MSSA. Conditions: ATCC 25923. In outline:
as §1

The next data set concerns Neisseria gonorrhoeae. Put plainly: MIC determination, Neisseria gonorrhoeae. As to conditions: for MIC N. gonorrhoeae FA19 ATCC BAA-1838: strain FA19 ATCC BAA-1838. It is filed as cell-based. The procedure: Bacteria were either obtained from American Type Culture Collection (ATCC; Manassas, Va., USA) or independent academic clinical isolate collections, as listed in Table 18 below. Bacteria were cultured in Nutrient broth (NB; Bacto Laboratories, catalogue No. 234000) or Mueller Hinton broth (MHB; Bacto Laboratories, catalogue No. 211443) at 37° C. overnight with shaking (˜180 RPM). A sample of each culture was then diluted 50-fold in fresh MHB and incubated at 37° C. for 2-3 h with shaking (˜180 RPM). Compound stock solutions were prepared as 0.64 mg/mL or 2.56 mg/mL in water. The compounds, at twice the final desired concentration, were serially diluted 2-fold across the wells of 96-well plates (Polystyrene, Corning, catalogue No. 3370). Mid-log phase bacterial cultures (after 2-3 h incubation) were diluted to a final concentration of 1×10^6 colony forming units (CFU)/mL, and 50 μL was added to each well giving a final cell density of 5×10^5 and a compound concentration range of 32 μg/mL to 0.015 μg/mL (128-0.06 μg/mL against P. aeruginosa PA9704).

Another data set can be described thus: in vitro. Conditions: human. In outline: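 Cells were seeded at 4000 per well and allowed to attach for 24 h at 37 °C, 5% CO2, then exposed to compounds for 24 h. Resazurin (5 μM) was added for 2 h at 37 °C and fluorescence read at 560/590 nm. CC50 was derived by curve fitting of dose-dependent growth inhibition.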

Values after ≈ are worked out from the molar mass of the structure shown. Positions of bridges follow the written chain, without caps; N, C: chain ends. Non-standard residues stand in square brackets, D forms with d. Residues, ends and D or L forms follow the SMILES beside them. *: point of attachment. Decanoyl(3R-OH) = CCCCCCC[C@@H](O)CC(=O)*; 1Nal = N[C@@H](Cc1cccc2ccccc12)C(=O)O; Igl = N[C@H](C(=O)O)C1Cc2ccccc2C1; dDab = NCC[C@@H](N)C(=O)O; dDap = NC[C@@H](N)C(=O)O; Dab = NCC[C@H](N)C(=O)O

Take `CCCCCCC[C@@H](O)CC(=O)N[C@H](CCN)C(=O)N[C@H]1CCNC(=O)[C@H](Cc2c[nH]c3ccccc23)NC(=O)[C@H](CCN)NC(=O)[C@H](CCN)NC(=O)[C@H](C2Cc3ccccc3C2)NC(=O)[C@@H](Cc2ccccc2)NC(=O)[C@H](CCN)NC1=O` [compound 8103, 3(R)OH-nC9CO-D-Dab-cyc[L-Dab-L-Dab-L-Dab-D-Phe-L-indanylgly-L-Dab-L-Dab-L-Trp]] ({Decanoyl(3R-OH)}-[dDab][Dab][Dab][dF][Igl][Dab][Dab]W; lactam 2-C): the “MIC A. baumannii ATCC 19606” value in the data set on A. baumannii ATCC 19606 was determined as 4 µg/mL (≈ 3.4 µM). The “MIC A. baumannii GN_093 PmxR” value against A. baumannii GN_093 PmxR was 4 µg/mL (≈ 3.4 µM). In the data set on E. coli ATCC 25922, the “MIC E. coli ATCC 25922” value worked out at 2 µg/mL (≈ 1.7 µM). For the same compound, in the data set on K. pneumoniae ATCC 13883, the “MIC K. pneumoniae ATCC 13883” value was 4 µg/mL (≈ 3.4 µM). In data set [1], the “MIC K. pneumoniae ATCC 700603, MDR” value came to 2 µg/mL (≈ 1.7 µM). In [2], the “MIC K. pneumoniae ATCC BAA-2146, NDM-1 pos” value was 4 µg/mL (≈ 3.4 µM). Further, in [3], the “MIC K. pneumoniae GN_102 PmxR” value was 4 µg/mL (≈ 3.4 µM). Moreover, the “MIC K. pneumoniae GN_106, PmxR” value in data set [4] worked out at 4 µg/mL (≈ 3.4 µM). Besides, the “MIC P. aeruginosa ATCC 27853” value against P. aeruginosa ATCC 27853 is 4 µg/mL (≈ 3.4 µM). Moreover, the “MIC P. aeruginosa GN_043, PmxR” value in data set [5] amounted to 2 µg/mL (≈ 1.7 µM). The “MIC P. aeruginosa GN_105, PmxR” value in data set [6] came to 2 µg/mL (≈ 1.7 µM). For the same compound, in [7], the “MIC S. aureus ATCC 25923, MSSA” value came out at 2 µg/mL (≈ 1.7 µM). Besides, in the data set on Neisseria gonorrhoeae, the “MIC N. gonorrhoeae FA19 ATCC BAA-1838” value is 0.2 µg/mL (≈ 0.17 µM).
Regarding `CCCCCCC[C@@H](O)CC(=O)N[C@H](CN)C(=O)N[C@H]1CCNC(=O)[C@H](Cc2c[nH]c3ccccc23)NC(=O)[C@H](CCN)NC(=O)[C@H](CCN)NC(=O)[C@H](CC(C)C)NC(=O)[C@@H](Cc2ccccc2)NC(=O)[C@H](CCN)NC1=O` [compound 8886, 3(R)OH-nC9CO-D-Dap-cyc[L-Dab-L-Dab-D-Phe-L-Leu-L-Dab-L-Dab-L-Trp]] ({Decanoyl(3R-OH)}-[dDap][Dab][Dab][dF]L[Dab][Dab]W; lactam 2-C), the “MIC A. baumannii ATCC 19606” value against A. baumannii ATCC 19606 was determined as 8 µg/mL (≈ 7.25 µM). The “MIC A. baumannii GN_093 PmxR” value against A. baumannii GN_093 PmxR is 8 µg/mL (≈ 7.25 µM). Besides, the “MIC E. coli ATCC 25922” value against E. coli ATCC 25922 was found to be 2 µg/mL (≈ 1.81 µM). Besides, the “MIC K. pneumoniae ATCC 13883” value with K. pneumoniae ATCC 13883 stood at 4 µg/mL (≈ 3.63 µM). In addition, the “MIC K. pneumoniae ATCC 700603, MDR” value in [1] turned out to be 4 µg/mL (≈ 3.63 µM). Besides, the “MIC K. pneumoniae ATCC BAA-2146, NDM-1 pos” value in [2] came to 4 µg/mL (≈ 3.63 µM). For the same compound, in data set [3], the “MIC K. pneumoniae GN_102 PmxR” value stood at 4 µg/mL (≈ 3.63 µM). In addition, the “MIC K. pneumoniae GN_106, PmxR” value in data set [4] is 4 µg/mL (≈ 3.63 µM). Further, the “MIC P. aeruginosa ATCC 27853” value in the data set on P. aeruginosa ATCC 27853 worked out at 2 µg/mL (≈ 1.81 µM). Also, in [5], the “MIC P. aeruginosa GN_043, PmxR” value is 2 µg/mL (≈ 1.81 µM). Moreover, in data set [6], the “MIC P. aeruginosa GN_105, PmxR” value was found to be 1 µg/mL (≈ 0.906 µM). For the same compound, the “MIC S. aureus ATCC 25923, MSSA” value in data set [7] stood at 4 µg/mL (≈ 3.63 µM). Moreover, the CC50 at 24 h in “in vitro” is 95 µM. Also, the “MIC N. gonorrhoeae F89” value against Neisseria gonorrhoeae (strain F89) worked out at 1.04 µg/mL (≈ 0.943 µM). Further, the “MIC N. gonorrhoeae FA19 ATCC BAA-1838” value in the data set on Neisseria gonorrhoeae worked out at 0.39 µg/mL (≈ 0.353 µM). For the same compound, in the data set on Neisseria gonorrhoeae (strain FA1090 A25 ATCC 700825), the “MIC N. gonorrhoeae FA1090 A25 ATCC 700825” value was determined as 0.91 µg/mL (≈ 0.825 µM). Moreover, the “MIC N. gonorrhoeae H041” value against Neisseria gonorrhoeae (strain H041) came out at 1.04 µg/mL (≈ 0.943 µM).
Consider `CCCCCCC[C@@H](O)CC(=O)N[C@H](CCN)C(=O)N[C@H]1CCNC(=O)[C@H](Cc2cccc3ccccc23)NC(=O)[C@H](CCN)NC(=O)[C@H](CCN)NC(=O)[C@H](CC(C)C)NC(=O)[C@@H](Cc2ccccc2)NC(=O)[C@H](CCN)NC1=O` [compound 8909, 3(R)OH-nC9CO-D-Dab-cyc[L-Dab-L-Dab-D-Phe-L-Leu-L-Dab-L-Dab-L-Ala(1Naphthyl)]] ({Decanoyl(3R-OH)}-[dDab][Dab][Dab][dF]L[Dab][Dab][1Nal]; lactam 2-C), for which the “MIC A. baumannii ATCC 19606” value in the data set on A. baumannii ATCC 19606 was determined as 4 µg/mL (≈ 3.54 µM). Also, the “MIC A. baumannii GN_093 PmxR” value against A. baumannii GN_093 PmxR was 4 µg/mL (≈ 3.54 µM). The “MIC E. coli ATCC 25922” value with E. coli ATCC 25922 is 2 µg/mL (≈ 1.77 µM). Besides, the “MIC K. pneumoniae ATCC 13883” value against K. pneumoniae ATCC 13883 is 2 µg/mL (≈ 1.77 µM). The “MIC K. pneumoniae ATCC 700603, MDR” value in data set [1] is 2 µg/mL (≈ 1.77 µM). Besides, the “MIC K. pneumoniae ATCC BAA-2146, NDM-1 pos” value in data set [2] came to 4 µg/mL (≈ 3.54 µM). In data set [3], the “MIC K. pneumoniae GN_102 PmxR” value turned out to be 4 µg/mL (≈ 3.54 µM). The “MIC K. pneumoniae GN_106, PmxR” value in data set [4] was determined as 4 µg/mL (≈ 3.54 µM). Besides, the “MIC P. aeruginosa ATCC 27853” value in the data set on P. aeruginosa ATCC 27853 is 2 µg/mL (≈ 1.77 µM). Moreover, the “MIC P. aeruginosa GN_043, PmxR” value in data set [5] was 4 µg/mL (≈ 3.54 µM). The “MIC P. aeruginosa GN_105, PmxR” value in data set [6] is 2 µg/mL (≈ 1.77 µM). Also, the “MIC S. aureus ATCC 25923, MSSA” value in data set [7] is 2 µg/mL (≈ 1.77 µM). The compound further registered a CC50 at 24 h in the data set “in vitro” of 26 µM. The “MIC N. gonorrhoeae FA19 ATCC BAA-1838” value against Neisseria gonorrhoeae was 0.78 µg/mL (≈ 0.691 µM).
